Assay results: publication PMC3472974, “The Bite of the Honeybee: 2-Heptanone Secreted from Honeybee Mandibles during a Bite Acts as a Local Anaesthetic in Insects and Mammals” (PLoS ONE, 2012)
Converted amounts (≈) assume the structure as drawn. Marks after values point to notes of the source that are not given here.

Tests used:
[1] = tested on: isolated rat sciatic nerve; test: tissue or blood; settings: for IT50: unit not given in Table 3, seconds per Table 2
Text: The ex vivo studies used both male and female rats weighing between 230 and 250 g. Animals were sacrificed using light anaesthesia with CO2 and cervical dislocation. The sciatic nerve of the rat, consisting of 27,000 sciatic nerve fibres, was isolated in a three-chamber recording bath (Fig. 5b). The sciatic nerves were dissected from the spinal cord to the knee, immersed in oxygenated (O2, 100%) saline solution and cleaned. The composition of the saline was (in mmoles/L): 136 NaCl, 11 glucose, 4.7 KCl, 2.4 CaCl2, 1.1 MgCl2, 1 NaHCO3, 10 HEPES, pH = 7.2). All experiments were performed at a constant temperature, 26.0±1.0°C. […] The nerve was mounted in a three-chambered recording bath made of Plexiglas, which is described elsewhere, [30]. The recording bath consisted of the recording (R in Fig. 5b), perfusion (P) and stimulating (S) chambers, each with a volume of 12 mL. The nCAP (Fig. 5a) was generated by stimulating (1 Hz) the part of the nerve in the stimulating chamber and was recorded in the recording chamber every second using standard electrophysiological methods. The nCAP was monitored throughout the experiment as an indication of the vitality of the nerve fibres in the recording bath. […] Immediately after the nCAP was eliminated, the saline+compound was removed and the nerve was washed out. Then, recovery of the nCAP in normal stagnant saline was monitored for 24 h. It is worth noting that the recording bath is designed in such a way that the chambers with the saline and 2-H (the nerves and the recording electrodes) was shielded from the air by using the cover (c in Fig. 5b) to avoid evaporation of the volatile 2-H. The saline with 2-H was added through a small diameter opening on the cover.
For further data analysis, the amplitude of the nCAPs, estimated from baseline to peak (Fig. 5), were measured at a specific time (every 1.0 s, 1.0 min or 1.0 h) and were expressed as a percentage of the amplitude of the nCAP at t = 0 (which was considered to be 100%). In the neuropharmacological experiments, time t = 0 was considered the time before application of the compound under investigation. […] The data were fitted in the program GraphPad Prism 5.0 using a one-phase exponential decay equation for the IC50. Data were analyzed by one-way ANOVA and Bonferroni’s post hoc tests, when required. Significance was determined using Students t-test or ANOVA as appropriate (p<0.05).

hNav1.6 channels = target: T1, hNav1.6 channels (Homo sapiens, UniProt Q9UQD0); test: Patch-clamp (PatchXpress 7000A) on transfected CHO cells, hNav1.6; type: cell-based; settings: CHO cells, n = 6, mean ± SEM, 2-H exposure limited to 3 min
T1 construct: expressed in transfected cells; host or cells: CHO-K1 (ATCC CCL-61)
Text: To test whether 2-H can act by blocking VGNaCs, the PatchXpress 7000A was used. Mammalian CHO (Chinese hamster ovary) transfected with ion hNav1.2 and hNav1.6 channels cDNAs (SCN2A and SCN8A genes) were exposed to 2-H under both tonic and phasic conditions. The mammalian CHO-K1 epithelial embryonic cell line (ATCC number CCL-61) from Cricetulus griseus was obtained from ATCC, Manassas, VA. CHO-K1 cells were transfected with either hNav1.2 or hNav1.6 channel cDNA (SCN2A and SCN8A genes, respectively) and were exposed to 2-H under both tonic and phasic conditions.
The effects of 2-H were evaluated on hNav1.2 at 0.73, 1.46, 2.19, and 2.92 mg/mL and on hNav1.6 channels at 0.1, 0.36, 0.73, and 1.46 mg/mL, with each concentration tested in at least six cells (n = 6). Cells were exposed to each concentration of 2-H and measurements of the inward current were obtained within the first 3 min of exposure. […] Since the PatchXpress has open cell chambers where the testing occurs, there is no way to hermetically seal the experiment.
Based on this analysis, we estimated the IC50.

wax moth larvae (WML) = test: Locomotory pattern of tethered wax moth larvae after injection; type: in vivo, Galleria mellonella; settings: large WML
Text: To monitor the constant locomotory pattern of WML, the probe of a force-displacement transducer (FT-03C, Grass Instrument Company, USA), attached to a micromanipulator, was hooked onto the tail of the WML, while the head was carefully pinned to a wax substrate, [14]. The electrical signal generated by the rhythmic force produced during locomotion was amplified and fed to a computer through a data acquisition card interface (Keithley KPCI 3102, Keithley Instruments, Cleveland, OH, USA). Software designed using the facilities of Labview (Labview 5.1, National Instruments USA) permitted analysis of the recorded data.

rat sciatic nerve = settings: 80 mM, rat sciatic nerve in vitro; cited from earlier work
[2] = Table 3, 3.41 mg/mL, unit not given in Table 3, s

T1 sequence (Q9UQD0 whole entry): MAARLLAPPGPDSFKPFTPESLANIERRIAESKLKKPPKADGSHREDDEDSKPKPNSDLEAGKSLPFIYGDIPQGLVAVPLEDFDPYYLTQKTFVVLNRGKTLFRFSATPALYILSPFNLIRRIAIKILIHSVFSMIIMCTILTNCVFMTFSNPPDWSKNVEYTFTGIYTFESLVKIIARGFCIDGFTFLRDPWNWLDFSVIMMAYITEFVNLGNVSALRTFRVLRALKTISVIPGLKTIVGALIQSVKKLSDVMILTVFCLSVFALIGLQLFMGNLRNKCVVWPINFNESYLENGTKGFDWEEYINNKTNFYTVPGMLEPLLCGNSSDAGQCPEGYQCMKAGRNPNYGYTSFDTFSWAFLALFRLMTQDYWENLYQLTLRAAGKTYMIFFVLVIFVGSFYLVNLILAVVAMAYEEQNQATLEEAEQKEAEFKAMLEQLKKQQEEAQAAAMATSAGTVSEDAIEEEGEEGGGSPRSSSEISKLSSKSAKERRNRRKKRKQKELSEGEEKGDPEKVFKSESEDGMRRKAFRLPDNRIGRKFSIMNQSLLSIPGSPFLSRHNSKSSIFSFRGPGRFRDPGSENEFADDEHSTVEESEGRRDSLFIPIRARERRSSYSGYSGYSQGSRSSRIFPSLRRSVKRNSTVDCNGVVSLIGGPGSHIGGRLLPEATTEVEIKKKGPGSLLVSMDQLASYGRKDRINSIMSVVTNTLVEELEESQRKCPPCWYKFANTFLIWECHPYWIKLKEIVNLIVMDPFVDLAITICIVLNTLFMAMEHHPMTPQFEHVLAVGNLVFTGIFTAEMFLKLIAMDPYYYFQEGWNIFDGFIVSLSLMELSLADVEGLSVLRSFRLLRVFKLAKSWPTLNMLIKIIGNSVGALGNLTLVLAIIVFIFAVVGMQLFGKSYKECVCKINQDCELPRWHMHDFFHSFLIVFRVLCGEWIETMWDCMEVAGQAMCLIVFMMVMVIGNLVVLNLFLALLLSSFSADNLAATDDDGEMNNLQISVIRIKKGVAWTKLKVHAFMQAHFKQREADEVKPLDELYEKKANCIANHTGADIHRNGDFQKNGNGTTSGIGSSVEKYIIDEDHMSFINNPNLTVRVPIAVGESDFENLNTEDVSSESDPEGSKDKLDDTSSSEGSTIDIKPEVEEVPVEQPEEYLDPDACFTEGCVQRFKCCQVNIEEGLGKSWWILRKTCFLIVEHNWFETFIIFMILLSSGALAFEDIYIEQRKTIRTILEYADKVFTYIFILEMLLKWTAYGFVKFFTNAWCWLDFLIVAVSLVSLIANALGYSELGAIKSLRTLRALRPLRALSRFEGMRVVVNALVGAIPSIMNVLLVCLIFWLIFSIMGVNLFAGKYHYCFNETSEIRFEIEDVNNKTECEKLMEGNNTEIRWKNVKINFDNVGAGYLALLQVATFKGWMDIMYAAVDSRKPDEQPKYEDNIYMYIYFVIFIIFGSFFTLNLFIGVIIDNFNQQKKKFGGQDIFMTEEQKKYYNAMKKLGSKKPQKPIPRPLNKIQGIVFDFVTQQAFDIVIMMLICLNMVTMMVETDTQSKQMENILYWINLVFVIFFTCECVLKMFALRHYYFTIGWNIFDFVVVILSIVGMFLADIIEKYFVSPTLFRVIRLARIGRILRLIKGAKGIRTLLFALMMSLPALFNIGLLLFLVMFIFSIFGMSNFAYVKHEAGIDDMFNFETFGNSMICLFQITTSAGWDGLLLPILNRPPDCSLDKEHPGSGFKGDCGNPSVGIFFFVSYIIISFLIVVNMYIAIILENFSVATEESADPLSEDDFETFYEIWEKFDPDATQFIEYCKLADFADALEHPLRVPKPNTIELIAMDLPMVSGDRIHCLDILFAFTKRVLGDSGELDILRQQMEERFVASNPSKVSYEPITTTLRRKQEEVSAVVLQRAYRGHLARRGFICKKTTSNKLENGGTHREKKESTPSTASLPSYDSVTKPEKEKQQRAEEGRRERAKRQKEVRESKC

Work on CCC(=O)CC [3-pentanone] yielded an IT0 [1, 2] of 765.00 ± 86.60 s and an IT50 ([1]; Table 3, 3.41 mg/mL) of 230.30 ± 1.29 s.

In the case of CCN(CC)CC(=O)Nc1c(C)cccc1C [lidocaine], the IC50 (hNav1.6 channels; hNav1.6 IC50, Phasic Experiment) is reported as 299 µM, the IC50 (hNav1.6 channels; hNav1.6 IC50, Tonic Experiment) is reported as 1240 µM and the “IT0 (time required for 100% inhibition of the nCAP)” value ([1]; 1.41 mg/mL) is reported as 320.3 ± 14.96 s. For the same molecule, the “IT50 (time to inhibit nCAP amplitude to 50% of control)” value ([1]; 1.41 mg/mL) was 32.23 ± 3.16 s, the “IT0 (time required for 100% inhibition of the nCAP)” value ([1]; 2.28 mg/mL) was 186.8 ± 8.07 s and the “IT50 (time to inhibit nCAP amplitude to 50% of control)” value ([1]; 2.28 mg/mL) was 30.9 ± 0.22 s. The “IT0 (time required for 100% inhibition of the nCAP)” value ([1]; 3.41 mg/mL) was 147.50 ± 9.96 s, the “IT50 (time to inhibit nCAP amplitude to 50% of control)” value ([1]; 3.41 mg/mL) was 27.11 ± 3.16 s and the “IT0 (time required for 100% inhibition of the nCAP)” value ([1]; 10 mg/mL) was 101.3 ± 2.16 s. The “IT50 (time to inhibit nCAP amplitude to 50% of control)” value ([1]; 10 mg/mL) was 12.0 ± 0.95 s, the IC50 ([1]; Rattus norvegicus, read-out: IC50 from concentration-response curves of the IT0 values) was 337 µg/mL (≈ 1440 µM) and the “recovery of nCAP amplitude after wash with normal saline” value ([1]; after elimination of nCAP, remained at this level for at least 24 h, n = 8) was 95.5%. For the same molecule, the “time to full recovery of locomotory pattern” value (wax moth larvae (WML); 0.81 mg injected, n = 5) was 6.42 h, the “effect of injection on large WML” value (wax moth larvae (WML); 1.63 mg injected, 12 cases) was “lethal effect” and the “effect on axonal membrane” value (rat sciatic nerve) was “disrupts the axonal membrane”.

For CCCC(=O)CCC [4-heptanone], the IT0 [1, 2] was 283.57±16.89^b seconds and the IT50 ([1]; Table 3, 3.41 mg/mL) was 45.24 ± 0.44 s.

In the case of CCCC(C)=O [2-pentanone], the IT0 ([1]; 3.41 mg/mL) is reported as “greater than 24 h”, the IT0 [1, 2] is reported as “No measurable” and the IT50 ([1]; Table 3, 3.41 mg/mL) is reported as 390.60 ± 0.10 s.

For CCCCCC(=O)CC [3-octanone], the IT0 [1, 2] was 722.50 ± 95.66 s and the IT50 ([1]; Table 3, 3.41 mg/mL) was 117.10 ± 0.53 s.

For CCCCC(C)=O [2-hexanone], the IT0 [1, 2] was 401.00 ± 33.20 s and the IT50 ([1]; Table 3, 3.41 mg/mL) was 74.42 ± 0.79 s.

CCCCCCC(C)=O [2-octanone] gave an IT0 [1, 2] of 555.00 ± 75.00 s and an IT50 ([1]; Table 3, 3.41 mg/mL) of 81.45 ± 1.58 s.

For CCCCC(=O)CC [3-heptanone], the IT0 [1, 2] was 258.00±11.47^b seconds and the IT50 ([1]; Table 3, 3.41 mg/mL) was 40.82 ± 1.67 s.
